Experimental data from patent publication EP0913089A1, “Synergistic herbicidal composition containing R-imazethapyr and R-imazapyr and method for controlling weeds therewith” (American Cyanamid Company, priority 1997, dated 1999).

Assays:
Assay in all cases: Greenhouse postemergence weed control, visual rating (Example 1)
Parameters in all cases: scale not given here
Settings in all cases: approx. 3 weeks after treatment
[1] = tested on: CHEAL; assay type: in vivo, Chenopodium album, L.
Description: (§1) In this evaluation, plants are grown in standard greenhouse soil for 10-14 days until they are at the 2-to 4-leaf stage. Said plants are then sprayed with an aqueous solution of the test compounds which contains 0.25% of a non-ionic surfactant and 1% of a 28-0-0 liquid fertilizer. Each treatment is replicated 3 to 4 times. Approximately 3 weeks after treatment visual ratings are made using the rating scale shown below. The data are averaged and shown on Table I. [table] [table]

[2] = tested on: AMBEL; assay type: in vivo, Ambrosia artemisiifolia, L.
Description: as §1

[3] = tested on: SETVI; assay type: in vivo, Setaria viridis, (L) Beauv
Description: as §1

[4] = tested on: ABUTH; assay type: in vivo, Abutilon theophrasti, Medic.
Description: as §1

Structure (SMILES): CC(C)C1(C)N=C(c2ncccc2C(=O)O)NC1=O (racemic) [Imazapyr]
- WEED CONTROL CHEAL ([1]; Rate 2.016 g/ha): 6.3
- WEED CONTROL CHEAL ([1]; Rate 4.00 g/ha): 8.0
- WEED CONTROL CHEAL ([1]; Rate 8.00 g/ha): 8.8
- WEED CONTROL CHEAL ([1]; Rate 16.00 g/ha): 9.0
- WEED CONTROL CHEAL ([1]; Rate 32.00 g/ha): 9.0
- WEED CONTROL CHEAL ([1]; Rate 48.00 g/ha): 9.0
- WEED CONTROL CHEAL ([1]; Rate 64.00 g/ha): 9.0
- WEED CONTROL AMBEL ([2]; Rate 2.016 g/ha): 2.5
- WEED CONTROL AMBEL ([2]; Rate 4.00 g/ha): 4.0
- WEED CONTROL AMBEL ([2]; Rate 8.00 g/ha): 5.0
- WEED CONTROL AMBEL ([2]; Rate 16.00 g/ha): 7.0
- WEED CONTROL AMBEL ([2]; Rate 32.00 g/ha): 7.8
- WEED CONTROL AMBEL ([2]; Rate 48.00 g/ha): 8.8
- WEED CONTROL AMBEL ([2]; Rate 64.00 g/ha): 8.8
- WEED CONTROL SETVI ([3]; Rate 2.016 g/ha): 5.3
- WEED CONTROL SETVI ([3]; Rate 4.00 g/ha): 6.8
- WEED CONTROL SETVI ([3]; Rate 8.00 g/ha): 9.0
- WEED CONTROL SETVI ([3]; Rate 16.00 g/ha): 9.0
- WEED CONTROL SETVI ([3]; Rate 32.00 g/ha): 9.0
- WEED CONTROL SETVI ([3]; Rate 48.00 g/ha): 9.0
- WEED CONTROL SETVI ([3]; Rate 64.00 g/ha): 9.0
- WEED CONTROL ABUTH ([4]; Rate 2.016 g/ha): 4.8
- WEED CONTROL ABUTH ([4]; Rate 4.00 g/ha): 6.3
- WEED CONTROL ABUTH ([4]; Rate 8.00 g/ha): 7.5
- WEED CONTROL ABUTH ([4]; Rate 16.00 g/ha): 8.5
- WEED CONTROL ABUTH ([4]; Rate 32.00 g/ha): 9.0
- WEED CONTROL ABUTH ([4]; Rate 48.00 g/ha): 9.0
- WEED CONTROL ABUTH ([4]; Rate 64.00 g/ha): 9.0

Structure (SMILES): CCc1cnc(C2=NC(C)(C(C)C)C(=O)N2)c(C(=O)O)c1 (racemic) [Imazethapyr]
- WEED CONTROL CHEAL ([1]; Rate 4.00 g/ha): 2.5
- WEED CONTROL CHEAL ([1]; Rate 8.00 g/ha): 2.3
- WEED CONTROL CHEAL ([1]; Rate 16.00 g/ha): 3.5
- WEED CONTROL CHEAL ([1]; Rate 32.00 g/ha): 7.0
- WEED CONTROL CHEAL ([1]; Rate 64.00 g/ha): 8.0
- WEED CONTROL CHEAL ([1]; Rate 96.00 g/ha): 9.0
- WEED CONTROL CHEAL ([1]; Rate 128.00 g/ha): 9.0
- WEED CONTROL AMBEL ([2]; Rate 4.00 g/ha): 2.5
- WEED CONTROL AMBEL ([2]; Rate 8.00 g/ha): 2.8
- WEED CONTROL AMBEL ([2]; Rate 16.00 g/ha): 4.0
- WEED CONTROL AMBEL ([2]; Rate 32.00 g/ha): 6.0
- WEED CONTROL AMBEL ([2]; Rate 64.00 g/ha): 6.5
- WEED CONTROL AMBEL ([2]; Rate 96.00 g/ha): 7.5
- WEED CONTROL AMBEL ([2]; Rate 128.00 g/ha): 8.8
- WEED CONTROL SETVI ([3]; Rate 4.00 g/ha): 3.5
- WEED CONTROL SETVI ([3]; Rate 8.00 g/ha): 4.5
- WEED CONTROL SETVI ([3]; Rate 16.00 g/ha): 4.3
- WEED CONTROL SETVI ([3]; Rate 32.00 g/ha): 6.0
- WEED CONTROL SETVI ([3]; Rate 64.00 g/ha): 7.5
- WEED CONTROL SETVI ([3]; Rate 96.00 g/ha): 9.0
- WEED CONTROL SETVI ([3]; Rate 128.00 g/ha): 9.0
- WEED CONTROL ABUTH ([4]; Rate 4.00 g/ha): 2.5
- WEED CONTROL ABUTH ([4]; Rate 8.00 g/ha): 3.0
- WEED CONTROL ABUTH ([4]; Rate 16.00 g/ha): 4.0
- WEED CONTROL ABUTH ([4]; Rate 32.00 g/ha): 6.3
- WEED CONTROL ABUTH ([4]; Rate 64.00 g/ha): 6.3
- WEED CONTROL ABUTH ([4]; Rate 96.00 g/ha): 9.0
- WEED CONTROL ABUTH ([4]; Rate 128.00 g/ha): 9.0

Structure (SMILES): CC(C)[C@@]1(C)N=C(c2ncccc2C(=O)O)NC1=O [R-Imazapyr, R-imazapyr]
- WEED CONTROL CHEAL ([1]; Rate 1.34 g/ha): 7.3
- WEED CONTROL CHEAL ([1]; Rate 2.68 g/ha): 7.8
- WEED CONTROL CHEAL ([1]; Rate 5.36 g/ha): 8.3
- WEED CONTROL CHEAL ([1]; Rate 10.72 g/ha): 9.0
- WEED CONTROL CHEAL ([1]; Rate 21.44 g/ha): 9.0
- WEED CONTROL CHEAL ([1]; Rate 32.16 g/ha): 9.0
- WEED CONTROL CHEAL ([1]; Rate 42.88 g/ha): 9.0
- WEED CONTROL AMBEL ([2]; Rate 1.34 g/ha): 1.5
- WEED CONTROL AMBEL ([2]; Rate 2.68 g/ha): 4.5
- WEED CONTROL AMBEL ([2]; Rate 5.36 g/ha): 5.0
- WEED CONTROL AMBEL ([2]; Rate 10.72 g/ha): 6.3
- WEED CONTROL AMBEL ([2]; Rate 21.44 g/ha): 7.5
- WEED CONTROL AMBEL ([2]; Rate 32.16 g/ha): 9.0
- WEED CONTROL AMBEL ([2]; Rate 42.88 g/ha): 8.5
- WEED CONTROL SETVI ([3]; Rate 1.34 g/ha): 6.0
- WEED CONTROL SETVI ([3]; Rate 2.68 g/ha): 7.5
- WEED CONTROL SETVI ([3]; Rate 5.36 g/ha): 8.0
- WEED CONTROL SETVI ([3]; Rate 10.72 g/ha): 9.0
- WEED CONTROL SETVI ([3]; Rate 21.44 g/ha): 9.0
- WEED CONTROL SETVI ([3]; Rate 32.16 g/ha): 9.0
- WEED CONTROL SETVI ([3]; Rate 42.88 g/ha): 9.0
- WEED CONTROL ABUTH ([4]; Rate 1.34 g/ha): 4.3
- WEED CONTROL ABUTH ([4]; Rate 2.68 g/ha): 5.8
- WEED CONTROL ABUTH ([4]; Rate 5.36 g/ha): 7.3
- WEED CONTROL ABUTH ([4]; Rate 10.72 g/ha): 8.0
- WEED CONTROL ABUTH ([4]; Rate 21.44 g/ha): 9.0
- WEED CONTROL ABUTH ([4]; Rate 32.16 g/ha): 9.0
- WEED CONTROL ABUTH ([4]; Rate 42.88 g/ha): 9.0

Structure (SMILES): CCc1cnc(C2=N[C@](C)(C(C)C)C(=O)N2)c(C(=O)O)c1 [R-Imazethapyr, R-imazethapyr]
- WEED CONTROL CHEAL ([1]; Rate 2.68 g/ha): 2.3
- WEED CONTROL CHEAL ([1]; Rate 5.36 g/ha): 3.8
- WEED CONTROL CHEAL ([1]; Rate 10.72 g/ha): 4.0
- WEED CONTROL CHEAL ([1]; Rate 21.44 g/ha): 6.8
- WEED CONTROL CHEAL ([1]; Rate 42.88 g/ha): 7.0
- WEED CONTROL CHEAL ([1]; Rate 64.30 g/ha): 9.0
- WEED CONTROL CHEAL ([1]; Rate 85.76 g/ha): 9.0
- WEED CONTROL AMBEL ([2]; Rate 2.68 g/ha): 3.8
- WEED CONTROL AMBEL ([2]; Rate 5.36 g/ha): 3.5
- WEED CONTROL AMBEL ([2]; Rate 10.72 g/ha): 3.0
- WEED CONTROL AMBEL ([2]; Rate 21.44 g/ha): 4.8
- WEED CONTROL AMBEL ([2]; Rate 42.88 g/ha): 6.5
- WEED CONTROL AMBEL ([2]; Rate 64.30 g/ha): 8.8
- WEED CONTROL AMBEL ([2]; Rate 85.76 g/ha): 9.0
- WEED CONTROL SETVI ([3]; Rate 2.68 g/ha): 4.8
- WEED CONTROL SETVI ([3]; Rate 5.36 g/ha): 4.5
- WEED CONTROL SETVI ([3]; Rate 10.72 g/ha): 5.5
- WEED CONTROL SETVI ([3]; Rate 21.44 g/ha): 6.5
- WEED CONTROL SETVI ([3]; Rate 42.88 g/ha): 7.5
- WEED CONTROL SETVI ([3]; Rate 64.30 g/ha): 9.0
- WEED CONTROL SETVI ([3]; Rate 85.76 g/ha): 9.0
- WEED CONTROL ABUTH ([4]; Rate 2.68 g/ha): 4.8
- WEED CONTROL ABUTH ([4]; Rate 5.36 g/ha): 4.8
- WEED CONTROL ABUTH ([4]; Rate 10.72 g/ha): 4.8
- WEED CONTROL ABUTH ([4]; Rate 21.44 g/ha): 6.8
- WEED CONTROL ABUTH ([4]; Rate 42.88 g/ha): 7.0
- WEED CONTROL ABUTH ([4]; Rate 64.30 g/ha): 9.0
- WEED CONTROL ABUTH ([4]; Rate 85.76 g/ha): 9.0
